Results reported in PubChem BioAssay AID1259407 (Chemical Carcinogenesis Research Information System (CCRIS), 2018).
Calls of active or inactive are those of the source. No rule for the calls is given here.

Tested on: CCRIS mutagenicity, Ames/micronucleus/aberration tests
Assay: CCRIS mutagenicity studies

Measured: mutagenic call

CC(C)CON=O
inactive: Test System: AMES SALMONELLA TYPHIMURIUM, Strain/Indicator: TA98, Metabolic Activation: HAMSTER, LIVER, S-9, AROCLOR 1254 (5 OR 10%), Method: PREINCUBATION inactive; negative | Test System: AMES SALMONELLA TYPHIMURIUM, Strain/Indicator: TA98, Metabolic Activation: HAMSTER, LIVER, S-9, AROCLOR 1254 (30%), Method: PREINCUBATION inactive; negative | Test System: AMES SALMONELLA TYPHIMURIUM, Strain/Indicator: TA98, Metabolic Activation: HAMSTER, LIVER, S-9, AROCLOR 1254, Method: STANDARD PLATE inactive; negative | Test System: AMES SALMONELLA TYPHIMURIUM, Strain/Indicator: TA98, Metabolic Activation: NONE, Method: DESICCATOR inactive; negative | Test System: AMES SALMONELLA TYPHIMURIUM, Strain/Indicator: TA98, Metabolic Activation: NONE, Method: FLUCTUATION (MICROTITER) inactive; negative | Test System: AMES SALMONELLA TYPHIMURIUM, Strain/Indicator: TA98, Metabolic Activation: NONE, Method: PREINCUBATION inactive; negative | Test System: AMES SALMONELLA TYPHIMURIUM, Strain/Indicator: TA98, Metabolic Activation: NONE, Method: STANDARD PLATE inactive; negative | Test System: AMES SALMONELLA TYPHIMURIUM, Strain/Indicator: TA98, Metabolic Activation: RAT LIVER S-9, AROCLOR 1254, Method: FLUCTUATION (MICROTITER) inactive; negative | Test System: AMES SALMONELLA TYPHIMURIUM, Strain/Indicator: TA98, Metabolic Activation: RAT, LIVER, S-9, AROCLOR 1254 (5 OR 10%), Method: PREINCUBATION inactive; negative | Test System: AMES SALMONELLA TYPHIMURIUM, Strain/Indicator: TA98, Metabolic Activation: RAT, LIVER, S-9, AROCLOR 1254 (30%), Method: PREINCUBATION inactive; negative | Test System: AMES SALMONELLA TYPHIMURIUM, Strain/Indicator: TA98, Metabolic Activation: RAT, LIVER, S-9, AROCLOR 1254, Method: DESICCATOR inactive; negative | Test System: AMES SALMONELLA TYPHIMURIUM, Strain/Indicator: TA98, Metabolic Activation: RAT, LIVER, S-9, AROCLOR 1254, Method: STANDARD PLATE inactive; negative | Test System: AMES SALMONELLA TYPHIMURIUM, Strain/Indicator: TA100, Metabolic Activation: NONE, Method: PREINCUBATION inactive; negative | Test System: AMES SALMONELLA TYPHIMURIUM, Strain/Indicator: TA1535, Metabolic Activation: RAT, LIVER, S-9, AROCLOR 1254 (10%), Method: PREINCUBATION inactive; negative | Test System: AMES SALMONELLA TYPHIMURIUM, Strain/Indicator: TA1537, Metabolic Activation: HAMSTER, LIVER, S-9, AROCLOR 1254 (10%), Method: PREINCUBATION inactive; negative | Test System: AMES SALMONELLA TYPHIMURIUM, Strain/Indicator: TA1537, Metabolic Activation: HAMSTER, LIVER, S-9, AROCLOR 1254, Method: STANDARD PLATE inactive; negative | Test System: AMES SALMONELLA TYPHIMURIUM, Strain/Indicator: TA1537, Metabolic Activation: NONE, Method: FLUCTUATION (MICROTITER) inactive; negative | Test System: AMES SALMONELLA TYPHIMURIUM, Strain/Indicator: TA1537, Metabolic Activation: NONE, Method: PREINCUBATION inactive; negative | Test System: AMES SALMONELLA TYPHIMURIUM, Strain/Indicator: TA1537, Metabolic Activation: NONE, Method: STANDARD PLATE inactive; negative | Test System: AMES SALMONELLA TYPHIMURIUM, Strain/Indicator: TA1537, Metabolic Activation: RAT LIVER S-9, AROCLOR 1254, Method: FLUCTUATION (MICROTITER) inactive; negative | Test System: AMES SALMONELLA TYPHIMURIUM, Strain/Indicator: TA1537, Metabolic Activation: RAT, LIVER, S-9, AROCLOR 1254 (10%), Method: PREINCUBATION inactive; negative | Test System: AMES SALMONELLA TYPHIMURIUM, Strain/Indicator: TA1537, Metabolic Activation: RAT, LIVER, S-9, AROCLOR 1254, Method: STANDARD PLATE inactive; negative | Test System: AMES SALMONELLA TYPHIMURIUM, Strain/Indicator: TA7001, Metabolic Activation: NONE, Method: FLUCTUATION (MICROTITER) inactive; negative | Test System: AMES SALMONELLA TYPHIMURIUM, Strain/Indicator: TA7001, Metabolic Activation: RAT LIVER S-9, AROCLOR 1254, Method: FLUCTUATION (MICROTITER) inactive; negative | Test System: AMES SALMONELLA TYPHIMURIUM, Strain/Indicator: TA7002, Metabolic Activation: NONE, Method: FLUCTUATION (MICROTITER) inactive; negative | Test System: AMES SALMONELLA TYPHIMURIUM, Strain/Indicator: TA7002, Metabolic Activation: RAT LIVER S-9, AROCLOR 1254, Method: FLUCTUATION (MICROTITER) inactive; negative | Test System: AMES SALMONELLA TYPHIMURIUM, Strain/Indicator: TA7003, Metabolic Activation: NONE, Method: FLUCTUATION (MICROTITER) inactive; negative | Test System: AMES SALMONELLA TYPHIMURIUM, Strain/Indicator: TA7003, Metabolic Activation: RAT LIVER S-9, AROCLOR 1254, Method: FLUCTUATION (MICROTITER) inactive; negative | Test System: AMES SALMONELLA TYPHIMURIUM, Strain/Indicator: TA7004, Metabolic Activation: NONE, Method: FLUCTUATION (MICROTITER) inactive; negative | Test System: AMES SALMONELLA TYPHIMURIUM, Strain/Indicator: TA7004, Metabolic Activation: RAT LIVER S-9, AROCLOR 1254, Method: FLUCTUATION (MICROTITER) inactive; negative | Test System: AMES SALMONELLA TYPHIMURIUM, Strain/Indicator: TA7005, Metabolic Activation: NONE, Method: FLUCTUATION (MICROTITER) inactive; negative | Test System: AMES SALMONELLA TYPHIMURIUM, Strain/Indicator: TA7005, Metabolic Activation: RAT LIVER S-9, AROCLOR 1254, Method: FLUCTUATION (MICROTITER) inactive; negative | Test System: AMES SALMONELLA TYPHIMURIUM, Strain/Indicator: TA7006, Metabolic Activation: NONE, Method: FLUCTUATION (MICROTITER) inactive; negative | Test System: AMES SALMONELLA TYPHIMURIUM, Strain/Indicator: TA7006, Metabolic Activation: RAT LIVER S-9, AROCLOR 1254, Method: FLUCTUATION (MICROTITER) inactive; negative
active: Test System: AMES SALMONELLA TYPHIMURIUM, Strain/Indicator: TA100, Metabolic Activation: HAMSTER, LIVER, S-9, AROCLOR 1254 (10%), Method: PREINCUBATION active; positive | Test System: AMES SALMONELLA TYPHIMURIUM, Strain/Indicator: TA100, Metabolic Activation: HAMSTER, LIVER, S-9, AROCLOR 1254 (30%), Method: PREINCUBATION active; positive | Test System: AMES SALMONELLA TYPHIMURIUM, Strain/Indicator: TA100, Metabolic Activation: HAMSTER, LIVER, S-9, AROCLOR 1254, Method: STANDARD PLATE active; positive | Test System: AMES SALMONELLA TYPHIMURIUM, Strain/Indicator: TA100, Metabolic Activation: NONE, Method: STANDARD PLATE active; positive | Test System: AMES SALMONELLA TYPHIMURIUM, Strain/Indicator: TA100, Metabolic Activation: RAT, LIVER, S-9, AROCLOR 1254 (10%), Method: PREINCUBATION active; positive | Test System: AMES SALMONELLA TYPHIMURIUM, Strain/Indicator: TA100, Metabolic Activation: RAT, LIVER, S-9, AROCLOR 1254 (30%), Method: PREINCUBATION active; positive | Test System: AMES SALMONELLA TYPHIMURIUM, Strain/Indicator: TA100, Metabolic Activation: RAT, LIVER, S-9, AROCLOR 1254, Method: DESICCATOR active; positive | Test System: AMES SALMONELLA TYPHIMURIUM, Strain/Indicator: TA100, Metabolic Activation: RAT, LIVER, S-9, AROCLOR 1254, Method: STANDARD PLATE active; positive | Test System: AMES SALMONELLA TYPHIMURIUM, Strain/Indicator: TA1535, Metabolic Activation: HAMSTER, LIVER, S-9, AROCLOR 1254 (10%), Method: PREINCUBATION active; positive | Test System: AMES SALMONELLA TYPHIMURIUM, Strain/Indicator: TA1535, Metabolic Activation: HAMSTER, LIVER, S-9, AROCLOR 1254 (30%), Method: PREINCUBATION active; positive | Test System: AMES SALMONELLA TYPHIMURIUM, Strain/Indicator: TA1535, Metabolic Activation: HAMSTER, LIVER, S-9, AROCLOR 1254, Method: STANDARD PLATE active; positive | Test System: AMES SALMONELLA TYPHIMURIUM, Strain/Indicator: TA1535, Metabolic Activation: NONE, Method: DESICCATOR active; positive | Test System: AMES SALMONELLA TYPHIMURIUM, Strain/Indicator: TA1535, Metabolic Activation: NONE, Method: STANDARD PLATE active; positive | Test System: AMES SALMONELLA TYPHIMURIUM, Strain/Indicator: TA1535, Metabolic Activation: RAT, LIVER, S-9, AROCLOR 1254 (30%), Method: PREINCUBATION active; positive | Test System: AMES SALMONELLA TYPHIMURIUM, Strain/Indicator: TA1535, Metabolic Activation: RAT, LIVER, S-9, AROCLOR 1254, Method: DESICCATOR active; positive | Test System: AMES SALMONELLA TYPHIMURIUM, Strain/Indicator: TA1535, Metabolic Activation: RAT, LIVER, S-9, AROCLOR 1254, Method: PREINCUBATION active; positive | Test System: AMES SALMONELLA TYPHIMURIUM, Strain/Indicator: TA1535, Metabolic Activation: RAT, LIVER, S-9, AROCLOR 1254, Method: STANDARD PLATE active; positive | Test System: MOUSE LYMPHOMA, Strain/Indicator: L5178Y (TK+/TK-), Metabolic Activation: NONE, Method: SUSPENSION/PLATE active; positive | Test System: MOUSE LYMPHOMA, Strain/Indicator: L5178Y (TK+/TK-), Metabolic Activation: RAT, LIVER, S-9, AROCLOR 1254, Method: SUSPENSION/PLATE active; positive | Test System: Mouse lymphoma, Strain/Indicator: L5178Y (tk+/tk-), Metabolic Activation: Rat, Liver, S-9, Aroclor 1254, Method: Suspension/plate active; positive
